Patent publication US10570097B2, “Antimicrobial imidazolium compounds” (AGENCY FOR SCIENCE, TECHNOLOGY AND RESEARCH, priority 2014, dated 2020)

What was measured:
S. aureus [1] = test: Minimum inhibitory concentration by microdilution assay; type: cell-based, Staphylococcus aureus (ATCC 6538); conditions: 37° C., 24 h
Procedure: (§1) Staphylococcus aureus (ATCC 6538, gram-positive), Escherichia coli (ATCC 25922, gram-negative), Pseudomonas aeruginosa (gram-negative), and Candida albicans (ATCC 10231, yeast) were used as representative microorganisms to challenge the antimicrobial functions of the imidazolium salts. All bacteria and yeast were stored frozen at −80° C., and were grown overnight at 37° C. in Tryptic Soy broth (TSB) prior to experiments. Yeast was grown overnight at 22° C. in Yeast Mold (YM) broth. Subsamples of these cultures were grown for 3 h further and diluted to give an optical density value of 0.07 at 600 nm, corresponding to 3×10^8 CFU mL^−1 (MacFarland's Standard).
(§2) The oligomer compounds were dissolved in PBS at a concentration of 1 mg mL^1 and the minimal inhibitory concentrations (MICs) were determined by microdilution assay. Typically, a 100 μL microbial solutions (containing 3×10^8 cells mL^−1) were added to 100 μL of PBS containing the test imidazolium salts (normally ranging from […] in serial two-fold dilutions) in each well of the 96-well microtiter plate. The plates were incubated at 37° C. for 24 h with shaking at 300 rpm, with monitoring at the 2, 4, 6, 8, and 24 h time points. […] Broth and PBS solution containing microbial cells alone were used as negative controls, and experiments were run in triplicates.

E. coli [2] = test: Time kill kinetics; type: cell-based, Escherichia coli; conditions: E. coli, 4MIC, two minutes
Procedure: Time kill studies of the soligome compounds against E. coli were also studied. The experimental setup for time kill kinetics was similar to the set up for MBC determination. The microbes were treated with oligomer compounds at 4MIC concentration, and samples were taken out of each well at 2 minutes. 500 μl of cell suspension was removed, rescued by a series of 10-fold dilutions with growth medium, and kept on ice until plating. For plating, 50 μl to 200 μl of the diluted samples was spread on growth medium agar plates and colonies were counted after overnight incubation at 37° C.

P. aeruginosa = test: Minimum inhibitory concentration by microdilution assay; type: cell-based, Pseudomonas aeruginosa; conditions: 37° C., 24 h
Procedure: as §1, §2

E. coli [3] = test: Minimum biocidal concentration / killing efficiency (24 h); type: cell-based, Escherichia coli
Procedure: (§3) To determine the minimum bacteriocidal concentration, the microbes were inoculated and prepared according to the procedure for MIC determination. […] The bacterial samples were taken out of each well after the aforementioned period, and subjected to a series of 10-fold dilutions. 20 uL of the diluted sample was then streaked across an agar plate, before incubation of the plate at 37° C. for 24 h. Colony forming units (CFU) were counted after overnight incubation, and the results were calculated according to the formula: [formula]

S. aureus [4] = test: as above; type: cell-based, Staphylococcus aureus
Procedure: as §3

[5] = system: rat red blood cells (RBCs); test: Hemolysis; type: cell-based; conditions: lowest concentration that induces 10% or more hemolysis; rat RBCs, 1 h, 37° C.; maximum tested 100,000 ppm
Procedure: Before these materials can be used in systemic applications, selectivity of these materials for microbial cells over mammalian cells should also be considered. Such selectivity is often determined by observation of hemolysis. Hemolysis was performed in the following manner, fresh rat red blood cells (RBCs) were diluted with PBS buffer to give an RBC stock suspension (4 vol % blood cells). A 100 μL aliquot of RBC stock was added to a 96-well plate containing […] oligomer compound stock solutions of various concentrations (serial 2-fold dilution in PBS). After 1 h incubation at 37° C., The contents of each well was pipetted into a microcentrifuge tube and then centrifuged at 4000 rpm for 5 min. Hemolytic activity was determined as a function of hemoglobin release by measuring OD576 of […] of the supernatant. A control solution that contained only PBS was used as a reference for 0% hemolysis. 100% hemolysis was measured by adding 0.5% Triton-X to the RBCs. [formula] The selectivity of the materials was also further assessed, by calculating the selectivity indices (SI), a measure and a comparison of safety and efficacies of each oligomer compound. […] Herein, the more stringent control of HC10 value was chosen over the HC50 value often reported in literature.

E. coli [6] = test: Minimum inhibitory concentration by microdilution assay; type: cell-based, Escherichia coli (ATCC 25922); conditions: E. coli, 37° C., 24 h
Procedure: as §1, §2

[7] = system: 4 microbes (S. aureus, E. coli, P. aeruginosa, C. Albicans); test: MIC over the 4 microbes tested (geometric mean); type: cell-based; conditions: geometric mean of the MICs of the 4 microbes
Procedure: Staphylococcus aureus (ATCC 6538, gram-positive), Escherichia coli (ATCC 25922, gram-negative), Pseudomonas aeruginosa (gram-negative), and Candida albicans (ATCC 10231, yeast) were used as representative microorganisms to challenge the antimicrobial functions of the imidazolium salts. All bacteria and yeast were stored frozen at −80° C., and were grown overnight at 37° C. in Tryptic Soy broth (TSB) prior to experiments. Yeast was grown overnight at 22° C. in Yeast Mold (YM) broth. […] Typically, a 100 μL microbial solutions (containing 3×10^8 cells mL^−1) were added to 100 μL of PBS containing the test imidazolium salts (normally ranging from […] in serial two-fold dilutions) in each well of the 96-well microtiter plate. The plates were incubated at 37° C. for 24 h with shaking at 300 rpm, with monitoring at the 2, 4, 6, 8, and 24 h time points. […] Broth and PBS solution containing microbial cells alone were used as negative controls, and experiments were run in triplicates. The selectivity of the materials was also further assessed, by calculating the selectivity indices (SI), a measure and a comparison of safety and efficacies of each oligomer compound. […] Herein, the more stringent control of HC10 value was chosen over the HC50 value often reported in literature.

[8] = Critical micellar concentration (pyrene fluorescent probe); type: physicochemical; conditions: FIG. 4, deionized water
Procedure: The CMC values of the oligomer compounds were determined in both deionised (DI) water and PBS, using a LS50B luminescence spectrometer (Perkin Elmer, United States) and employing pyrene as a fluorescent probe. A known weight of the oligomer compound was dissolved in either 2 mL of DI water or PBS in a 4 mL glass vial and serial dilutions were effected. 10 μL of pyrene stock solution in acetone (6.16×10^-5 M) was added to each vial containing 1 mL of a known concentration of the oligomer compound, and the acetone was then evaporated at room temperature. The solution was allowed to equilibrate overnight and the final concentration of pyrene in each vial was 6.16×10^-7 M. The excitation spectra of the solutions were scanned from 300 to 360 nm with an emission wavelength of 395 nm, and both the excitation and emission bandwidths were set at 2.5 nm. The intensity ratios ([…]/[…]) were plotted against polymer concentration. The CMC value was given by the intersection of the tangent to the curve at the inflection and the tangent of the points at low polymer concentrations.

C. Albicans = test: Minimum inhibitory concentration by microdilution assay; type: cell-based, Candida albicans (ATCC 10231); conditions: 24 h
Procedure: as §1, §2

[9] = Gelling properties in solvents (tube inversion test); type: physicochemical
Procedure: Gels were prepared by weighing the imidazolium oligomer compounds directly into 4 mL glass vials and subsequently adding a known weight or volume of the solvent. The vials containing both the imidazolium and the solvent were either vortexed or sonicated to ensure that the imidazolium was dissolved and dispersed thoroughly before being placed in a 4° C. fridge overnight. The tube inversion test method was used to examine gel formation in different solvents.

Structure (SMILES): CCCCCCCC[n+]1ccn(Cc2ccc(C[n+]3ccn(Cc4ccc(C[n+]5ccn(Cc6ccccc6Cn6cc[n+](Cc7ccc(Cn8cc[n+](Cc9ccc(Cn%10cc[n+](CCCCCCCC)c%10)cc9)c8)cc7)c6)c5)cc4)c3)cc2)c1.[Br-].[Br-].[Cl-].[Cl-].[Cl-].[Cl-] [Compound 2]
- MIC S.A. (S. aureus [1]): 4 µg/mL
- % kill (E. coli [2]): >99.9%
- Log reduction (E. coli [2]): 3.11
- MIC P.A. (P. aeruginosa): 16 µg/mL
- % killing (E. coli [3]; 0.5 MIC): 99.779%
- Log reduction (E. coli [3]; 0.5 MIC): 2.67 ± 0.128
- % killing (E. coli [3]; 2 MIC): >99.999%
- Log reduction (E. coli [3]; 2 MIC): 7.19 ± 0.149
- % killing (E. coli [3]; MIC): >99.999%
- Log reduction (E. coli [3]; MIC): 7.11 ± 0.123
- % killing (S. aureus [4]; 0.5 MIC): 98.03%
- Log reduction (S. aureus [4]; 0.5 MIC): 1.71 ± 0.032
- % killing (S. aureus [4]; 2 MIC): >99.999%
- Log reduction (S. aureus [4]; 2 MIC): 13.38 ± 0.337
- % killing (S. aureus [4]; MIC): >99.999%
- Log reduction (S. aureus [4]; MIC): 11.82 ± 0.067
- HC10 [5]: 12500 ppm
- MIC E. coli (E. coli [6]): 8 µg/mL
- MIC GM [7]: 9.51 µg/mL
- sharp point of inflection indicating the critical micellar concentrations [8]: not observed
- MIC C.A. (C. Albicans): 16 µg/mL
- State in solvent ([9]; Acetone): Insoluble
- State in solvent ([9]; Acetonitrile): Insoluble
- Concentration to form gel ([9]; EtOH): (11 wt %)
- State in solvent ([9]; EtOH): Gel
- State in solvent ([9]; Ethylene glycol): Solution
- State in solvent ([9]; Glycerol): Solution
- Concentration to form gel ([9]; nBuOH): (11.3 wt %)
- State in solvent ([9]; nBuOH): Gel
- Concentration to form gel ([9]; nPrOH): (9.8 wt %)
- State in solvent ([9]; nPrOH): Gel
